Experimental data as given in publication PMC8457121, “From Kinase Inhibitors to Multitarget Ligands as Powerful Drug Leads for Alzheimer's Disease using Protein‐Templated Synthesis” (Angewandte Chemie (International Ed. in English), 2021).

What was measured:
[1] = target: CK1δ (Homo sapiens, UniProt P48730); assay: CK1δ inhibition enzymatic assay (Kinase-Glo); type: biochemical; conditions: for inhibition at 10 µM: read-out: CK1δ enzyme inhibition at 10 μM
Method: CK1δ inhibition enzymatic assay. The “Kinase-Glo” Kit from Promega was used to screen compounds for activity against CK1δ Kinase-Glo assays were performed in assay buffer using black 96-well plates. In a typical assay, 10 μl of test compound (dissolved in DMSO at 1 mM concentration and diluted in advance in assay buffer to the desired concentration) 10 μl (16 ng) of enzyme were added to each well followed by 20 µl of assay buffer containing 0,1 % casein as substrate […]
exceed 1%. After 60-min incubation at 30°C the enzymatic reaction was stopped […]
with 40 μl of Kinase-Glo reagent. Glow-type luminescence was recorded after 10 min using a FLUOstar Optima (BMG Labtechnologies GmbH, Offenburg, Germany) multimode reader. The activity is proportional to the difference of the total and consumed ATP. The inhibitory activities were calculated on the basis of maximal activities measured in the absence of inhibitor. The IC50 was defined as the concentration of each compound that reduces a 50% the enzymatic activity with respect to that without inhibitors. […]
Ibérica SAU). Kinase-Glo Luminescent Kinase Assay was obtained from Promega (Promega Biotech Ibérica, SL). ATP and all other reagents were from Sigma Aldrich (St. Louis, MO). Assay buffer contained 50 mM HEPES (pH 7.5), 1 mM EDTA, 1 mM EGTA, and 15 mM magnesium acetate. […]

[2] = target: T1, Human recombinant GSK3β (Homo sapiens, UniProt P49841); assay: GSK3β inhibition enzymatic assay (Kinase-Glo); type: biochemical
T1 construct: purchased Millipore (Millipore Ibérica SAU)
T1 sequence (P49841 whole entry): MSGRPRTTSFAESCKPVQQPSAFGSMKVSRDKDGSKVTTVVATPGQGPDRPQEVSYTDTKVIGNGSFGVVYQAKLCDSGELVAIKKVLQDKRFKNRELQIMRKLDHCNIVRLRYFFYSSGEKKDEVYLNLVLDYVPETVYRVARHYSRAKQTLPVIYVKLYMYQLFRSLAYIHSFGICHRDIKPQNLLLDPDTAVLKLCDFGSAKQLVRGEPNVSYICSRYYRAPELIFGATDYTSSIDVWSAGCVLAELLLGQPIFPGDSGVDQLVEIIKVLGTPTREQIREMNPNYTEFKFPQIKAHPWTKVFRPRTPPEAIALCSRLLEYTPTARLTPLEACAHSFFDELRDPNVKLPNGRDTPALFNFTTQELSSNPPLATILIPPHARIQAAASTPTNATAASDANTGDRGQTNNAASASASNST
Method: GSK3β inhibition enzymatic assay. Human recombinant GSK3β and the pre-phosphorylated polypeptide substrate were purchased from Millipore (Millipore Ibérica SAU). Kinase-Glo Luminescent Kinase Assay was obtained from Promega (Promega Biotech Ibérica, SL). ATP and all other reagents were from Sigma Aldrich (St. Louis, MO). Assay buffer contained 50 mM HEPES (pH 7.5), 1 mM EDTA, 1 mM EGTA, and 15 mM magnesium acetate.
Kinase-Glo assays were performed in assay buffer using black 96-well plates. In a typical assay, 10 μL (10 μM) of test compound (dissolved in DMSO) at 1 mM concentration and diluted in advance in assay buffer to the desired concentration) and 10 μL (20 ng) of enzyme were added to each well followed by 20 μL of assay buffer containing 25 μM substrate and 1 μM ATP. The final DMSO concentration […]
After 30 min incubation at 30 °C, the enzymatic reaction was stopped with 40 μL of Kinase-Glo reagent. Glow-type luminescence was recorded after 10 min using a FLUOstar Optima (BMG
Labtechnologies GmbH, Offenburg, Germany) multimode reader. The activity is proportional to the difference of the total and consumed ATP. The inhibitory activities were calculated based on maximal activities measured in the absence of inhibitor. The IC50 was defined as the concentration of each compound that reduces a 50 % the enzymatic activity with respect to that without inhibitors. […]

[3] = target: BACE1 (Homo sapiens, UniProt P56817); assay: BACE1 enzymatic assay (FRET); type: biochemical; conditions: for inhibition at 10 µM: read-out: BACE1 enzyme inhibition at 10 μM
Chain of BACE1 (P56817 46-501): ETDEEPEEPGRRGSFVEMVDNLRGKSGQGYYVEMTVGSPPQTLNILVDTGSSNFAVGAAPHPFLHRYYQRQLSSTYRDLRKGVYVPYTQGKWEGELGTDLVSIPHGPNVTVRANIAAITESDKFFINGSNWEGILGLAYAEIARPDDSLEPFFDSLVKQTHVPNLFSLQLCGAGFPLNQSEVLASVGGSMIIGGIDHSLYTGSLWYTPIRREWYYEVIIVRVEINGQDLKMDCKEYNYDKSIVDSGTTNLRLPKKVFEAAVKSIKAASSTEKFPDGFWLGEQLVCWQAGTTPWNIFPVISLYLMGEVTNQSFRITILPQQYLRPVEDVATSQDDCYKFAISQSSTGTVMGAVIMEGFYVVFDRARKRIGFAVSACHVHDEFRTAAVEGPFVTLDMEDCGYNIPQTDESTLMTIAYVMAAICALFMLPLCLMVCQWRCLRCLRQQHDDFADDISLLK
Method: BACE1 enzymatic assay. BACE1 in vitro assays were carried out using FRET.
μM) carrying the Swedish mutation and containing a rhodamine as a fluorescence donor and a quencher acceptor at each end was used. The intact substrate is weakly fluorescent and becomes highly fluorescent upon enzymatic cleavage.
The assays were conducted in 50 mM sodium acetate buffer, pH 4.5, in a final

[4] = test system: SK-APP cells; assay: Aβ40 and Aβ42 levels in SK-APP cells (sandwich ELISA); type: cell-based, human; conditions: 10 μM, 48 h treatment
Method: page 35: enzyme concentration (1 U/mL). Inhibitor screening at 10 μM. The mixture was incubated for 60 min at 25 °C under dark conditions and then stopped with 2.5 M sodium acetate. Fluorescence was measured with a FLUOstar Optima (BMG Labtechnologies GmbH, Offenburg, Germany) microplate reader at 545 nm excitation and 585 nm emission. Evaluation of BACE Inhibitors Kinetics. To evaluate the mechanism of BACE1 inhibition of the compounds, substrate-dependent kinetic experiments were performed. BACE activity were measured at five different concentrations substrate (1000 -62,5 μM) in the absence or presence of the select inhibitor at two different concentrations. The results are presented as double reciprocal Lineweaver-Burk plots (1/V vs 1/[S]) Figure S1. Cell culture and treatments. SK-N-MC cells stably expressing the human isoform APP695 (SK-APP cell line […]1) were generated by transfection of SK-N-MC cells with a pCDNA3-APP expression vector, and kindly provided by Dr. MJ Bullido. These cells were cultured in DMEM (Thermo Fisher) medium supplemented with 10% FBS (Thermo Fisher), 1 mM glutamine (Sigma- Aldrich), and 100 unit/ml penicillin (Lonza) and […] streptomycin (Lonza). Cell cultures were maintained in a 5% CO2, humidified atmosphere at 37 °C. SH-SY5Y cells were obtained from the American Type Culture Collection and grown in DMEM media (Gibco), supplemented with 10% foetal bovine serum, and 1% penicillin/streptomycin (Invitrogen). The cells were grown at 37 °C in a humidified 5% CO2 atmosphere. For the treatments, all the compounds were dissolved in dimethyl sulfoxide (DMSO, from Sigma) at an initial stock concentration of 10 mM. […] working solutions were obtained from the dilution of the stock solutions in DMEM media (DMSO control solutions were prepared similarly to the compounds). Okadaic acid (OA, Sigma-Aldrich) was dissolved in DMSO at an initial stock concentration of 60 μM and a 250X working solution was obtained from the dilution of the stock solution in DMEM. All the compounds (250x solutions) were added directly into the wells at the indicated final concentrations for 1 hour before the treatment with OA at a final concentration of 30 nM. DMSO was added at the appropriate concentration to the 34 page 36: control-untreated cells. The cells were maintained in the presence of the OA and the different compounds for 24h. Measurement of cell viability. Cell viability assays were carried out using a 3- […] (Sigma-Aldrich) in 96-well cell culture plates. All cells were then incubated with a 0.5 mg/ml MTT solution (Sigma-Aldrich) at 37 °C for 4 h and then with cell lysis […] The absorbance values were determined at 590 nm. Cell viability was expressed as a percent of OD of control cells, the value of which was defined as 100%. Cell viability in SH-SY5Y were carried out following the same procedure but seeding the cells in 24 well multiplates. Absorbance was measured using a Varioskan Flash multiplate reader (Thermo Scientific) at test 550 nm and reference 664 nm wave-lengths. Compound concentration for SK-APP line was 10 μM and for the SH-SY5Y was 1 and 5 μM. Immunoassays. Levels of Aβ40 and Aβ42 were quantified by sandwich ELISAs (Wako, Osaka, Japan) from cellular lysates and conditioned media collected. CNS penetration: in vitro PAMPA-BBB test. Prediction of the brain penetration was evaluated using a parallel artificial membrane permeability assay (PAMPA).1 Nine quality control compounds (mentioned below) of know BBB permeability were included in each experiment to validate the analysis set.2 Commercial drugs […] dissolved in 250 μL of DMSO (Sigma-Aldrich). 25 μL of these compound stock solutions were taken and 225 μL of DMSO and 4750 μL of PBS pH 7.4 buffer were added to reach 5% of DMSO concentration in the experiment and a final […] Compounds to be determined their ability to pass the brain barrier (0.5-1 mg) were dissolved in 250 μL of DMSO and 4750 μL of PBS pH 7.4 was carefully added to afford a final […]

[5] = test system: SH-SY5Y cells; assay: Okadaic acid-induced cell death model, viability of SH-SY5Y cells; type: cell-based, human; conditions: OA 30 nM, 24 h, compound 1 and 5 µM
Method: (§1) page 35: enzyme concentration (1 U/mL). Inhibitor screening at 10 μM. The mixture was incubated for 60 min at 25 °C under dark conditions and then stopped with 2.5 M sodium acetate. Fluorescence was measured with a FLUOstar Optima (BMG Labtechnologies GmbH, Offenburg, Germany) microplate reader at 545 nm excitation and 585 nm emission. Evaluation of BACE Inhibitors Kinetics. To evaluate the mechanism of BACE1 inhibition of the compounds, substrate-dependent kinetic experiments were performed. BACE activity were measured at five different concentrations substrate (1000 -62,5 μM) in the absence or presence of the select inhibitor at two different concentrations. The results are presented as double reciprocal Lineweaver-Burk plots (1/V vs 1/[S]) Figure S1. Cell culture and treatments. […] The absorbance values were determined at 590 nm. Cell viability was expressed as a percent of OD of control cells, the value of which was defined as 100%. […] Absorbance was measured using a Varioskan Flash multiplate reader (Thermo Scientific) at test 550 nm and reference 664 nm wave-lengths. […] Levels of Aβ40 and Aβ42 were quantified by sandwich ELISAs (Wako, Osaka, Japan) from cellular lysates and conditioned media collected. […] Compounds to be determined their ability to pass the brain barrier (0.5-1 mg) were dissolved in 250 μL of DMSO and 4750 μL of PBS pH 7.4 was carefully added to afford a final […]

[6] = PAMPA-BBB test; type: in vitro ADME; conditions: for Papp at 2.5 h: read-out: Pe exp; for Solubility in the conditions of the PAMPA experiment: PBS pH 7.4 with 5% DMSO
Method: dissolved in 250 µL of DMSO (Sigma-Aldrich). 25 µL of these compound stock
solutions were taken and 225 µL of DMSO and 4750 µL of PBS pH 7.4 buffer
compound concentration in the range of 0.2 to 1.1 mM. Compounds to be
µL of DMSO and 4750 µL of PBS pH 7.4 was carefully added to afford a final
compound concentration in the range of 0.2 to 1.1 mM. Solutions were filtered
using filter PDVF membrane units (diameter 30 mm, pore size 0.45 μm, Symta).
10 µL of each solution were taken and diluted 10-fold with PBS/DMSO (95/5) for
HPLC-MS analysis. The acceptor 96-well plate (Multiscreen®, catalog no.
MAMCS9610, Millipore) was filled with 180 µL of PBS/DMSO (95/5). The donor
96-well plate (Multiscreen® IP Sterile Plate PDVF membrane, pore size is 0.45
M, catalog no. MAIPS4510, Millipore) was coated with 4 µL 20 mg·mL-1 of
for 5 min and then 180 µL of each compound solution was added. Then the donor
plate was put on the acceptor plate and kept for 2.5 h at room temperature. After
incubation, samples were collected from the acceptor plate and diluted 10-fold
with PBS/DMSO (95/5) for HPLC-MS analysis and compared to HPLC-MS of
initial solutions. Absorbance peak of each compound was determined by MS
detection and was used to calculate the concentration of compounds and
Every sample was analysed in two independent
runs. HPLC-MS was performed using a HPLC-MS equipment from Thermo
Fisher coupled to a Finnigan TM LXQ TM detector. Each compound was
analysed using a Sunfire column C18, 3.5 μm (50 mm x 4.6 mm) and acetonitrile
and Milli-Q water (with 0.1% formic acid) as mobile phase. The standard gradient

[7] = target: T2, LRRK2 (Homo sapiens, UniProt Q5S007); assay: LRRK2 inhibition enzymatic assay (Adapta, ThermoFisher); type: biochemical; conditions: for inhibition at 10 µM: read-out: LRRK2 enzyme inhibition at 10 μM
T2 construct: purchased ThermoFisher (assay run by the company)
T2 sequence (Q5S007 whole entry): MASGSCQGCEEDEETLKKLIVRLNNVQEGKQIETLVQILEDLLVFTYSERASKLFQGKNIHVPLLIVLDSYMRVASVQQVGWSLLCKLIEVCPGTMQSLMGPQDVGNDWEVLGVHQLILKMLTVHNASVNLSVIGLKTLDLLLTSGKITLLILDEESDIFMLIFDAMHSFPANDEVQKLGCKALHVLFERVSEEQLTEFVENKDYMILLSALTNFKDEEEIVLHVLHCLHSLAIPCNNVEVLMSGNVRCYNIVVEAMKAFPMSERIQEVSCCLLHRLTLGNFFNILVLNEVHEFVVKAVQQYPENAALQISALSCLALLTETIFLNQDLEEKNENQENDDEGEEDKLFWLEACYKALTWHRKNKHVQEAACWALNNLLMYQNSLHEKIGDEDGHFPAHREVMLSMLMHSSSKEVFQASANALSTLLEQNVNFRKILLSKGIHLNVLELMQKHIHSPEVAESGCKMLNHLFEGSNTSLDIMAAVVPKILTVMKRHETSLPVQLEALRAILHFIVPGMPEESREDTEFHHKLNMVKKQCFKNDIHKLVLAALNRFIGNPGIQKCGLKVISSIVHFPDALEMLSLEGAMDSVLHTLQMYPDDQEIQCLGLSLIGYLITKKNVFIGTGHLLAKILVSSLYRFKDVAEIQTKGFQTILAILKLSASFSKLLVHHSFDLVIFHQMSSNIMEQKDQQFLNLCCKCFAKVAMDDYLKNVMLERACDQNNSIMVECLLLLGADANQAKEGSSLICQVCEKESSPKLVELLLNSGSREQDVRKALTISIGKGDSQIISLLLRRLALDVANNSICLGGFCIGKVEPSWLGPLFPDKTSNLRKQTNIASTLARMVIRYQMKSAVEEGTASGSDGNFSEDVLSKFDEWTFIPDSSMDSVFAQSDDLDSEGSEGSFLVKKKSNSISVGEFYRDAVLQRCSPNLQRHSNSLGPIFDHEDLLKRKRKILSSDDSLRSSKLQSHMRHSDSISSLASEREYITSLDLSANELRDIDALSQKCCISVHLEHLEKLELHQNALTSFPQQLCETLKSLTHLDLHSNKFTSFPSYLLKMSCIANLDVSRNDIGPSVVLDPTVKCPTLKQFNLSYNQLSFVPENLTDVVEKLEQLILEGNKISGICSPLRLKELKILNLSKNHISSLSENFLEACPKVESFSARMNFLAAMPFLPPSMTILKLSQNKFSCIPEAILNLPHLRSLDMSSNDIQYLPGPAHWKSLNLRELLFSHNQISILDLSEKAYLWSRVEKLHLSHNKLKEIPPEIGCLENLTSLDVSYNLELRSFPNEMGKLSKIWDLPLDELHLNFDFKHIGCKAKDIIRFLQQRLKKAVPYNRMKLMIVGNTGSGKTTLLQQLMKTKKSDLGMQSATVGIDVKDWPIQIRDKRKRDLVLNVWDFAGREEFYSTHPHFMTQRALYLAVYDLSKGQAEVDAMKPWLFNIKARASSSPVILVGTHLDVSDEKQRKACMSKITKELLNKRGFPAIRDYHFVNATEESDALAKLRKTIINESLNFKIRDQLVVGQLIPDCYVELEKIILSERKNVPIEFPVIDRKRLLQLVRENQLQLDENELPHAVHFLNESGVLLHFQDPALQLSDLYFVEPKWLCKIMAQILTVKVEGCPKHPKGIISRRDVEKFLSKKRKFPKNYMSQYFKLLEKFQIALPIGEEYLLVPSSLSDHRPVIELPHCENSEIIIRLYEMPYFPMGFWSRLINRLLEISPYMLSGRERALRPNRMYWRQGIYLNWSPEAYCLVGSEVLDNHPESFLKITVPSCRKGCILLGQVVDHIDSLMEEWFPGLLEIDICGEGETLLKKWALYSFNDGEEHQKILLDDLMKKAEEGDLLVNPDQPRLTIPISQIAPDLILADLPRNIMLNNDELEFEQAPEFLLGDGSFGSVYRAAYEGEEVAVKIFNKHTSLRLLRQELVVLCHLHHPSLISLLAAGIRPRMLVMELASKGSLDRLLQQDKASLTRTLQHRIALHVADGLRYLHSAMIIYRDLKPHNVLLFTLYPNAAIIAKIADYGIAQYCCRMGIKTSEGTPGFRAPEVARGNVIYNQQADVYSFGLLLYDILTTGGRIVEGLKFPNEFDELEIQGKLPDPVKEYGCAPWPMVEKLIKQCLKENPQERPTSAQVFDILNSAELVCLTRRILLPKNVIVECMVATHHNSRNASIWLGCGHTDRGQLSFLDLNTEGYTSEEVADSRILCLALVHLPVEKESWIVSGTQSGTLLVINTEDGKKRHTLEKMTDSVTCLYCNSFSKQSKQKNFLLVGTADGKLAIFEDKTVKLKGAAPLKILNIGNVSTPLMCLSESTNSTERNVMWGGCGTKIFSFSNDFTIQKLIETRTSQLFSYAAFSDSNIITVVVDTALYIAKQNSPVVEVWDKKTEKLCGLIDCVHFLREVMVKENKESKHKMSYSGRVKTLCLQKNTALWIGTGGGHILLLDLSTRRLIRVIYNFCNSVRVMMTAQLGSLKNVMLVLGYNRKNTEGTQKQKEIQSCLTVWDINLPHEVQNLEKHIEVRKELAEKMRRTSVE

[8] = test system: SK-APP cells; assay: Cell viability (MTT) in SK-APP cells; type: cell-based, human; conditions: 10 μM, 48 hours
Method: as §1

[9] = PAMPA-BBB, PBS pH 7.4/DMSO 95/5, 2.5 h, room temperature

Chain of CK1δ (P48730 whole entry): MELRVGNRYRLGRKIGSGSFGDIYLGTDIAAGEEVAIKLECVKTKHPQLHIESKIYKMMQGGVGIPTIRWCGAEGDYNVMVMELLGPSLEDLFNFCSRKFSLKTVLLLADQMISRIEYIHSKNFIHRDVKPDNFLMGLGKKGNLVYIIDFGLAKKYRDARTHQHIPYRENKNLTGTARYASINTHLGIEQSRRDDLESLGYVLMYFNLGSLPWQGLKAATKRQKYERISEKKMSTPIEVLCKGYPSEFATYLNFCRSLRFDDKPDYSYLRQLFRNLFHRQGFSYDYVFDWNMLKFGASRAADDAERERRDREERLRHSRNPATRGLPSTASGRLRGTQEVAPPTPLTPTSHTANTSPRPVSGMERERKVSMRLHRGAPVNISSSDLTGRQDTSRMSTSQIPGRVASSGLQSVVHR

SMILES | IC50 [1] | inhibition at 10 µM [3] | Papp at 2.5 h [6, 9] | IC50 [7] | IC50 [3] | CNS prediction ([6]; PAMPA-BBB) | further results
CCn1sc(=O)n(Cc2cn(Cc3ccc(CC(=O)Nc4nc5ccccc5s4)cc3)nn2)c1=O [compound 15] | 1.25 ± 0.21 µM | 30% | 5.08 ± 0.63 ×10⁻⁶ cm/s | – | – | CNS+ (CNS+ (green) for compounds with Pe >3.20×10^−6 cm s^−1) | IC50 [2]: 3.85 ± 0.32 µM; Aβ40 levels in cellular lysates [4]: decrease; Aβ40 levels in extracellular fluid [4]: decrease; Aβ42 levels in cellular lysates (intracellular) [4]: unchanged; Aβ42 levels in extracellular fluid [4]: significant decrease; Neuroprotection against okadaic acid (OA) toxicity [5]: rescue from the toxic effect of OA
O=C(Cc1ccc(Cn2cc(COc3ccc(/N=C4\C(=O)Nc5ccccc54)cc3)nn2)cc1)Nc1nc2ccccc2s1 [compound 16] | 6.47 ± 0.68 µM | – | 3.07 ± 0.25 ×10⁻⁶ cm/s | 13.5 ± 5.23 µM | 7.24 ± 0.38 µM | CNS+/CNS- (CNS+/CNS‐ (yellow) for compounds with Pe between both values) | Cell viability of SK-APP cells [8]: significant decrease
O=C(Cc1ccc(OCc2cn(Cc3ccc(C(=O)Nc4nc5ccccc5s4)cc3)nn2)cc1)Nc1nc2ccc(C(F)(F)F)cc2s1 [compound 28] | 0.4 ± 0.06 µM | – | 0.65 ± 0.18 ×10⁻⁶ cm/s | 0.71 ± 0.26 µM | 7.21 ± 0.35 µM | CNS- (CNS‐ (red) for compounds with Pe <1.88×10^−6 cm s^−1) | –
CCOC(=O)c1sc(NC(=O)Cc2ccc(OCc3cn(Cc4ccc(CC(=O)Nc5nc6ccccc6s5)cc4)nn3)cc2)nc1C [compound 31] | 5.4 ± 0.91 µM | – | – | – | 6.76 ± 0.61 µM | – | inhibition at 10 µM ([2]; read-out: GSK3β enzyme inhibition at 10 μM): 26%; Solubility in the conditions of the PAMPA experiment [6]: insoluble
O=C1Nc2ccccc2/C1=N/c1ccc(OCc2cn(Cc3ccc(C(=O)Nc4nc5ccccc5s4)cc3)nn2)cc1 [compound 32] | – | < 20% | – | – | – | – | inhibition at 10 µM [7]: 54%

More lines, main results first:

IC50 [1] | inhibition at 10 µM [3] | Papp at 2.5 h [6, 9] | IC50 [7] | IC50 [3] | SMILES | CNS prediction ([6]; PAMPA-BBB) | further results
– | – | – | 7.09 ± 2.22 µM | 2.51 ± 0.43 µM | O=C(Cc1ccc(Cn2cc(COc3ccc(C(=O)Nc4nc5ccccc5s4)cc3)nn2)cc1)Nc1nc2ccccc2s1 [compound 17] | – | inhibition at 10 µM [1]: 26%; Cell viability of SK-APP cells [8]: significant decrease; Solubility in the conditions of the PAMPA experiment [6]: insoluble
12.6 ± 0.7 µM | – | – | 0.44 ± 0.1 µM | 11 ± 1.36 µM | COc1ccc2nc(NC(=O)Cc3ccc(OCc4cn(CCc5ccc(C(=O)Nc6nc7ccccc7s6)cc5)nn4)cc3)sc2c1 [compound 29] | CNS- (CNS‐ (red) for compounds with Pe <1.88×10^−6 cm s^−1) | Pe exp [6, 9]: 0 10-6 cm s-1
– | – | 3.58 ± 0.12 ×10⁻⁶ cm/s | 3.19 ± 1.01 µM | 8.57 ± 0.45 µM | O=C(Cc1ccc(OCc2cn(CCc3ccc(C(=O)Nc4nc5ccccc5s4)cc3)nn2)cc1)Nc1nc2ccccc2s1 [compound 30] | CNS+ (CNS+ (green) for compounds with Pe >3.20×10^−6 cm s^−1) | inhibition at 10 µM [1]: 30%; melting point: 239 to 240 °C
– | < 20% | – | – | – | O=C(Nc1nc2ccccc2s1)c1ccc(CCn2cc(COc3ccc(C(=O)Nc4nc5ccccc5s4)cc3)nn2)cc1 [compound 33] | – | inhibition at 10 µM [7]: 98%
